Results published in PubChem BioAssay (NCI).
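GI50 marks 50% less growth. TGI: total growth inhibition.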

Experiments:
Experiment in all cases: NCI tumour cell line growth inhibition, 384-well format
MOLT-4 leukemia = test system: MOLT-4 leukemia
NCI-H460 NSCLC = test system: NCI-H460 NSCLC
SK-MEL-5 melanoma = test system: SK-MEL-5 melanoma
HCT-15 colon = test system: HCT-15 colon
MALME-3M melanoma = test system: MALME-3M melanoma
U251 glioblastoma = test system: U251 glioblastoma
T-47D breast = test system: T-47D breast
SK-OV-3 ovarian = test system: SK-OV-3 ovarian
SR leukemia = test system: SR leukemia
OVCAR-3 ovarian = test system: OVCAR-3 ovarian
RXF 393 renal = test system: RXF 393 renal
UACC-62 melanoma = test system: UACC-62 melanoma
OVCAR-8 ovarian = test system: OVCAR-8 ovarian
786-0 renal = test system: 786-0 renal
NCI-H226 lung = test system: NCI-H226 lung
SN12C renal = test system: SN12C renal
M14 melanoma = test system: M14 melanoma
MDA-MB-435 melanoma = test system: MDA-MB-435 melanoma
DU-145 prostate = test system: DU-145 prostate
CAKI-1 renal = test system: CAKI-1 renal
SW-620 colon = test system: SW-620 colon
HCC-2998 colon = test system: HCC-2998 colon
A549 NSCLC = test system: A549 NSCLC
MDA-MB-231 breast = test system: MDA-MB-231 breast
HCT-116 colon = test system: HCT-116 colon
TK-10 renal = test system: TK-10 renal
UACC-257 melanoma = test system: UACC-257 melanoma
MDA-MB-468 breast = test system: MDA-MB-468 breast

`O=C1Nc2c(C(F)(F)F)cccc2[C@@]1(c1ccc(O)cc1)c1ccc(OC(F)(F)F)cc1` was tested, and the GI50 (MOLT-4 leukemia) was 10.4 µM, the TGI (MOLT-4 leukemia) was 22.2 µM and the GI50 (NCI-H460 NSCLC) was 13.7 µM. The TGI (NCI-H460 NSCLC) was 27.1 µM, the GI50 (SK-MEL-5 melanoma) was 10.9 µM and the TGI (SK-MEL-5 melanoma) was 22.9 µM. The GI50 (HCT-15 colon) was 0.0186 µM, the TGI (HCT-15 colon) was 15.2 µM and the GI50 (MALME-3M melanoma) was 8.37 µM. For the same compound, the TGI (MALME-3M melanoma) was 20.8 µM, the GI50 (U251 glioblastoma) was 14.9 µM and the TGI (U251 glioblastoma) was 28.2 µM. For the same compound, the GI50 (T-47D breast) was < 0.01 µM, the TGI (T-47D breast) was < 0.01 µM and the GI50 (SK-OV-3 ovarian) was 0.0584 µM. The TGI (SK-OV-3 ovarian) was 13.8 µM, the GI50 (SR leukemia) was 2.04 µM and the TGI (SR leukemia) was 4.15 µM. The GI50 (OVCAR-3 ovarian) was < 0.01 µM, the TGI (OVCAR-3 ovarian) was 0.017 µM and the GI50 (RXF 393 renal) was < 0.01 µM. For the same compound, the TGI (RXF 393 renal) was < 0.01 µM, the GI50 (UACC-62 melanoma) was 0.0331 µM and the TGI (UACC-62 melanoma) was 5.96 µM. The GI50 (OVCAR-8 ovarian) was < 0.01 µM, the TGI (OVCAR-8 ovarian) was < 0.01 µM and the GI50 (786-0 renal) was 15.3 µM. For the same compound, the TGI (786-0 renal) was 28.7 µM, the GI50 (NCI-H226 lung) was 0.0108 µM and the TGI (NCI-H226 lung) was 0.0276 µM. For the same compound, the GI50 (SN12C renal) was < 0.01 µM, the TGI (SN12C renal) was 0.0211 µM and the GI50 (M14 melanoma) was 3.36 µM. It also gave a TGI (M14 melanoma) of 17.2 µM, a GI50 (MDA-MB-435 melanoma) of 8.62 µM and a TGI (MDA-MB-435 melanoma) of 20.9 µM. It also gave a GI50 (DU-145 prostate) of 0.0313 µM, a TGI (DU-145 prostate) of 0.102 µM and a GI50 (CAKI-1 renal) of 12.9 µM. For the same compound, the TGI (CAKI-1 renal) was 25.5 µM, the GI50 (SW-620 colon) was 7.09 µM and the TGI (SW-620 colon) was 19.4 µM. The GI50 (HCC-2998 colon) was < 0.01 µM, the TGI (HCC-2998 colon) was 0.0415 µM and the GI50 (A549 NSCLC) was 0.0341 µM. For the same compound, the TGI (A549 NSCLC) was 0.148 µM, the GI50 (MDA-MB-231 breast) was 3.86 µM and the TGI (MDA-MB-231 breast) was 18.9 µM. For the same compound, the GI50 (HCT-116 colon) was 0.0252 µM, the TGI (HCT-116 colon) was 16.9 µM and the GI50 (TK-10 renal) was < 0.01 µM. For the same compound, the TGI (TK-10 renal) was < 0.01 µM, the GI50 (UACC-257 melanoma) was 12 µM and the TGI (UACC-257 melanoma) was 24.4 µM. The GI50 (MDA-MB-468 breast) was < 0.01 µM and the TGI (MDA-MB-468 breast) was < 0.01 µM.
